Test results taken from ChEMBL document CHEMBL4699540, “Discovery and structure activity relationships of 7-benzyl triazolopyridines as stable, selective, and reversible inhibitors of myeloperoxidase” (Bioorg Med Chem, 2020).

Tests used:
[1] = Binding affinity to human neutrophil MPO delta (1-95) measured for 5 mins by SPR assay
[2] = target: T1, Myeloperoxidase (Homo sapiens, UniProt P05164); experiment: Inhibition of recombinant human MPO incubated for 10 mins by amplex red dye based assay
T1 sequence (P05164 whole entry): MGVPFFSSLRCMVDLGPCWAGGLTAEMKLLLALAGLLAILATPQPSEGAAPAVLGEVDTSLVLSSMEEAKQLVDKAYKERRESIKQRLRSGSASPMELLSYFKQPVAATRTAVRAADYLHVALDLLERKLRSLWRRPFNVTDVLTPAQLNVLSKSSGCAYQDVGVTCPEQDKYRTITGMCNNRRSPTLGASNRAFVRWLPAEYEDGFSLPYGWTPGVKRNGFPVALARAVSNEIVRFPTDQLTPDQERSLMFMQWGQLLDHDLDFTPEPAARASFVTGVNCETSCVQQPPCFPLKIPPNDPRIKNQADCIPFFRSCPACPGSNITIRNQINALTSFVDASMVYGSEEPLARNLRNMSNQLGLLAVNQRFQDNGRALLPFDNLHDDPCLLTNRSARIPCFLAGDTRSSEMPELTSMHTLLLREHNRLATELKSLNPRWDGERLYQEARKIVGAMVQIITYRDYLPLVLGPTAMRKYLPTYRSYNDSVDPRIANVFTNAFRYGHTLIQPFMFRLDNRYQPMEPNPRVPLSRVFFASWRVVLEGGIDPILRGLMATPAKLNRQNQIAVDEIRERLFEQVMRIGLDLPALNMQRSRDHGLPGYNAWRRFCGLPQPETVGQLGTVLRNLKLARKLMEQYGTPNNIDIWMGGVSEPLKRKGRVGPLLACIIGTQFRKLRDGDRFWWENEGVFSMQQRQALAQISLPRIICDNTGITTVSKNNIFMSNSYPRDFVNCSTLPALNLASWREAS

[3] = target: T2, Methylated-DNA--protein-cysteine methyltransferase (Homo sapiens, UniProt P16455); experiment: Inhibition of human MGMT using 06-benzylguanine as substrate incubated for 30 mins by LC/MS analysis; details: 0.5 h
T2 sequence (P16455 whole entry): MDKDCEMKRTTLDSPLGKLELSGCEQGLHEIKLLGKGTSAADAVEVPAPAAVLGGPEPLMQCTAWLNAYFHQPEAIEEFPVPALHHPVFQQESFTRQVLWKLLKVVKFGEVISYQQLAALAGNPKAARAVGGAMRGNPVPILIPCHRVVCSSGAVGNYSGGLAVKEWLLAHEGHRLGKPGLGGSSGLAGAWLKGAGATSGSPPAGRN

[4] = Metabolic stability in human liver microsomes assessed as compound remaining; assay type: ADME, Microsome
[5] = Metabolic stability in rat liver microsomes assessed as compound remaining; assay type: ADME, Microsome
[6] = Metabolic stability in mouse liver microsomes assessed as compound remaining; assay type: ADME, Microsome
[7] = Permeability of compound at pH 5.5 by PAMPA assay; assay type: ADME; details: read-out: permeability
[8] = Permeability of compound at pH 7.4 by PAMPA assay; assay type: ADME; details: read-out: permeability
[9] = target: T3, Cytochrome P450 1A2 (Homo sapiens, UniProt P05177); experiment: Inhibition of CYP1A2 (unknown origin); assay type: ADME
T3 sequence (P05177 whole entry): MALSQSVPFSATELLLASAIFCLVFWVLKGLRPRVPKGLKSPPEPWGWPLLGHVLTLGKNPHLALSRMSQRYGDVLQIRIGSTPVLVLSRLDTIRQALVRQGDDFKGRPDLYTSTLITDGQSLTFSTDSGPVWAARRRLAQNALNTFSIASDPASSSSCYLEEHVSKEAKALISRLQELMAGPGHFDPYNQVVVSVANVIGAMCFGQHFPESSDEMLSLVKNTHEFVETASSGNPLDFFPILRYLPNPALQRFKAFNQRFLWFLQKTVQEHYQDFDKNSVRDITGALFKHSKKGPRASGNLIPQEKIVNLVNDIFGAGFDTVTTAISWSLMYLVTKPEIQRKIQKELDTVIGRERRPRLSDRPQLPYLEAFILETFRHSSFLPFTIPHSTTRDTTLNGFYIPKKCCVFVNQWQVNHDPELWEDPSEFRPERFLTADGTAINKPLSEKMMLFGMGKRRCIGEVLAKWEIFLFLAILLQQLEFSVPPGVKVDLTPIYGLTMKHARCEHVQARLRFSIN

[10] = target: T4, Cytochrome P450 2B6 (Homo sapiens, UniProt P20813); experiment: Inhibition of CYP2B6 (unknown origin); assay type: ADME
T4 sequence (P20813 whole entry): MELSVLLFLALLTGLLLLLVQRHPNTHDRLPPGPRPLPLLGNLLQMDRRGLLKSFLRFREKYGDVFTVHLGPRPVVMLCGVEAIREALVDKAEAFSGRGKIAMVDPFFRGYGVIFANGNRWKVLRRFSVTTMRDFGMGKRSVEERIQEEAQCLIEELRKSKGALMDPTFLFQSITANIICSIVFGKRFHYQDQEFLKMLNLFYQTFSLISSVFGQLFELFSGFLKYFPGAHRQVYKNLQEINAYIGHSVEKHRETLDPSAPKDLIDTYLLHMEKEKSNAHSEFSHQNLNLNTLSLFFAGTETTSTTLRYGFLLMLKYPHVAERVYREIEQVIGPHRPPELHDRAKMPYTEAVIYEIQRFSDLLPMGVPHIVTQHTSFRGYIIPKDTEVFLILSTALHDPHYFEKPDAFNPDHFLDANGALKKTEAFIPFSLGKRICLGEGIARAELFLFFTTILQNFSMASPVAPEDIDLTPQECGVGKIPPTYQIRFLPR

[11] = target: T5, Cytochrome P450 2C8 (Homo sapiens, UniProt P10632); experiment: Inhibition of CYP2C8 (unknown origin); assay type: ADME
T5 sequence (P10632 whole entry): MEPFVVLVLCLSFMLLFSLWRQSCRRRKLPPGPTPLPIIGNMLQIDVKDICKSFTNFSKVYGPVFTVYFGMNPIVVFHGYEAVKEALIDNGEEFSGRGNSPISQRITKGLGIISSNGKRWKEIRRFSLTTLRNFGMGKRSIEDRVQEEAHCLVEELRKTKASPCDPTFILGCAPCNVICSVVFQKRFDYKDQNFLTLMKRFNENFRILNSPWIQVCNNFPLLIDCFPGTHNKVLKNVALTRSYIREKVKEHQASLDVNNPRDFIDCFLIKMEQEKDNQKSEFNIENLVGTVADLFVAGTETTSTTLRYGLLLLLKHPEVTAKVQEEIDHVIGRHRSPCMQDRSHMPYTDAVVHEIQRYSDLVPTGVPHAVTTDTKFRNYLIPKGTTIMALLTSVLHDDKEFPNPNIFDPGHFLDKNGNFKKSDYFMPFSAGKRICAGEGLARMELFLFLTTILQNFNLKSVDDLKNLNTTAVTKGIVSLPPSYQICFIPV

[12] = target: Cytochrome P450 2D6 (Homo sapiens, UniProt P10635); experiment: Inhibition of CYP2D6 (unknown origin); assay type: ADME
Sequence of Cytochrome P450 2D6 (P10635 whole entry): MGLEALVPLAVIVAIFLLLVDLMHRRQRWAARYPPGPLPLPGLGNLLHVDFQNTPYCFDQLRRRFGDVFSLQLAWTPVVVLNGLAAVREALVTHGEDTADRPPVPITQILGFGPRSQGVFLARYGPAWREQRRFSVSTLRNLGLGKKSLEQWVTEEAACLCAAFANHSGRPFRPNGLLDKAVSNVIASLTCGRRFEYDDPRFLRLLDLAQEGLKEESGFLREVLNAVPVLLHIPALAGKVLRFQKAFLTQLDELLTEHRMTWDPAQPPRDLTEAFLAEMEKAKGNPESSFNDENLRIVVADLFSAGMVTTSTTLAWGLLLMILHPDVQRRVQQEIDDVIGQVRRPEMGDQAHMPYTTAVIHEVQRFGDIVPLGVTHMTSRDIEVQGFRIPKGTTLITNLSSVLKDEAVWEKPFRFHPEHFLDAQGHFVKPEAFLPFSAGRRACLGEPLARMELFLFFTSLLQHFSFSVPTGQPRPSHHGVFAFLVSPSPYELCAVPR

[13] = target: Cytochrome P450 3A4 (Homo sapiens, UniProt P08684); experiment: Inhibition of CYP3A4 (unknown origin); assay type: ADME
Sequence of Cytochrome P450 3A4 (P08684 whole entry): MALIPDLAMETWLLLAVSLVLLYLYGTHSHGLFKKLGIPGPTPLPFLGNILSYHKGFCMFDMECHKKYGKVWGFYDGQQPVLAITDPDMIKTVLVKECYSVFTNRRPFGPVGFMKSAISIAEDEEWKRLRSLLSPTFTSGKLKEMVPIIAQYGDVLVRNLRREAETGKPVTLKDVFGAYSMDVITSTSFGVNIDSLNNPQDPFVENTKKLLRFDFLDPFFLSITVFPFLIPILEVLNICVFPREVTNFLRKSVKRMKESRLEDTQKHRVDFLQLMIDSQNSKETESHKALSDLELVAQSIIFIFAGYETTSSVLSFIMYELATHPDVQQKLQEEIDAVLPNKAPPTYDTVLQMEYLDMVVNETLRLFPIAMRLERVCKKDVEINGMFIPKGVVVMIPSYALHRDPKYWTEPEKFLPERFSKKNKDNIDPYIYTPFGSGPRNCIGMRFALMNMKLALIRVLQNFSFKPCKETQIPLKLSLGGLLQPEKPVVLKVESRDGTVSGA

[14] = AUCtot in CD-1 mouse at 3 mg/kg, po by LC/MS analysis; assay type: ADME, organism-based; parameters: time AUCmax, route oral, dose 3 mg/kg; details: in vivo
[15] = Half life in CD-1 mouse at 3 mg/kg, po by LC/MS analysis; assay type: ADME, organism-based; details: in vivo
[16] = Dissociation constant, pKa of the compound; assay type: physicochemical
[17] = tested on: Neutrophil; details: Homo sapiens, time 5.0 min
[18] = target: T6, Myeloperoxidase (Mus musculus, UniProt P11247); experiment: Inhibition of PMA-induced MPO in mouse Neutrophil incubated for 3 mins by luminometry; assay type: tissue-based
T6 sequence (P11247 whole entry): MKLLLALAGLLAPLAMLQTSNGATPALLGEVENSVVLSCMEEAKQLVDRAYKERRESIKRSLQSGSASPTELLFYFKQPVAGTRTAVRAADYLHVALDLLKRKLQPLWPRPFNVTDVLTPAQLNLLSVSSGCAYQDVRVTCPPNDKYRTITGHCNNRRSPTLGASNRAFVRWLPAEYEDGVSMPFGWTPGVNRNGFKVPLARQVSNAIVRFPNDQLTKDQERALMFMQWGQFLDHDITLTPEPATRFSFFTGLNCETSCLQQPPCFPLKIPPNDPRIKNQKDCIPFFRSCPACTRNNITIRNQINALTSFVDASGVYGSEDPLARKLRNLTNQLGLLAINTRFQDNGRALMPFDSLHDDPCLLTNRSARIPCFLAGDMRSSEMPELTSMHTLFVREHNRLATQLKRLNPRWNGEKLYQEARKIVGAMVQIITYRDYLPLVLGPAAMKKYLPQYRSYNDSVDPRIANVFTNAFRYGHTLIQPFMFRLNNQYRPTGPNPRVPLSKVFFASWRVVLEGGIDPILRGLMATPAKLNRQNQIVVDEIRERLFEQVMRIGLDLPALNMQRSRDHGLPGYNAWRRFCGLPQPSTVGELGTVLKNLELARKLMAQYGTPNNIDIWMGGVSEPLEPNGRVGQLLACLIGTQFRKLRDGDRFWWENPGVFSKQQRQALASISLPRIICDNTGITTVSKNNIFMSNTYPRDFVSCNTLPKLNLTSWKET

| IC50 [2] | inhibition (INH) [3] | Stabilty [4] | Stabilty [5] | Stabilty [6] | Papp [7] | Papp [8] | IC50 [9] | IC50 [10] | IC50 [11] | IC50 [12] | IC50 [13] | AUC [14] | half-life [15] | pKa [16] | IC50 [18] | SMILES | Kd [1] | Ka [17] | Kdiss [17] |
| --- | --- | --- | --- | --- | --- | --- | --- | --- | --- | --- | --- | --- | --- | --- | --- | --- | --- | --- | --- |
| 0.103 µM | Active | 93% | 95% | 80% | 42 ×10⁻⁶ cm/s | 16.7 ×10⁻⁶ cm/s | > 10 µM | > 10 µM | > 10 µM | > 10 µM | > 10 µM | 22.2 µM·h | 2.4 h | 6.6 |  | Nc1nc(OCc2ccccc2)c2[nH]nnc2n1 | 0.547 µM | 1.3 10^3/M.s | 0.72 10^-3/s |
|  |  |  |  |  |  |  |  |  |  |  |  |  |  |  | 32.5 µM | O=c1[nH]c(=S)n(C[C@H]2CCCO2)c2nc[nH]c12 |  |  |  |
